Here are results for 25 molecules from patent publication US6673576B1, “Process for producing nucleic acids” (priority 1995, dated 2004).

Data set [1] deals with T1, inosine-guanosine kinase derived from Exiguobacterium acetylicum (Exiguobacterium acetylicum, UniProt O24767). In words: Phosphate donor specificity (nucleoside triphosphates) of the purified kinase. The data set is classed as biochemical. The note with it: for use as phosphate donor (in words): 5 mM nucleoside triphosphate; for Relative activity: Nucleoside triphosphate (5 mM) instead of ATP, ATP = 100. The protocol: (§1) Fifty microliter of this reaction mixture was used as a basic composition and the reaction was carried out at 30° C. for 10 minutes. The enzyme had the following properties.
The reaction was performed by using 5 mM of each of various nucleoside triphosphates instead of ATP, and the possible phosphate donors were examined.

Data set [2] has as its target T1, inosine-guanosine kinase derived from Exiguobacterium acetylicum. In words: Substrate specificity (nucleoside as phosphate receptor) of the purified kinase. It counts as biochemical. The note with it: for Relative activity: Nucleoside (0.5 mM) instead of guanosine, [γ-32P]-ATP, guanosine = 100; for use as phosphate receptor (in words): 0.5 mM nucleoside. As to the method:
as §1
The reaction was performed by using 0.5 mM of each of various nucleosides instead of guanosine and [Υ-^32P]-ATP instead of ATP. The thus-formed nucleoside 5′-phosphate was measured.

The target is the same in data set [3]. Nature of the data set: Effect of metal ions on the purified kinase. It counts as biochemical. The note with it: for Relative activity: Metal salts (1 mM) present in the reaction mixture, not added = 100; for inhibition of the enzyme by metal ions (in words): 1 mM metal ions. The protocol: as §1
Data set [4] has the same target. Nature of the data set: Metal requirement of the purified kinase. The data set is classed as biochemical. The note with it: for Relative activity: Metal salts (5 mM) instead of magnesium chloride, MgCl2 = 100; for metal requirement (in words): metal ions replacing magnesium chloride. As to the method:
as §1
The reaction was performed by changing magnesium chloride to various metal ions in the reaction solution.

The nature of data set [5]: pH and temperature optimum and stability of the purified kinase. The data set is classed as biochemical, Exiguobacterium acetylicum. The protocol:
as §1
The reaction was performed by changing the buffer to 100 mM of sodium acetate-acetic acid buffer (pH 4.2-5.6), 2-morphorinoethanesulfonic acid (hereinafter referred to as “MES”)-sodium hydroxide buffer (pH 5.4-6.3), 3-morphorinopropanesulfonic acid (MOPS)-sodium hydroxide buffer (pH 6.3-7.2), Tris-hydrochloride buffer (pH 7.2-8.8), cyclohexylaminopropanesulfonic acid (hereinafter referred to as “CAPS”)- sodium hydroxide buffer (pH 8.8-10.4) or glycine-sodium hydroxide buffer (pH 10.3-11.0). The optimum pH was between 7.7 and 9.9.
The enzyme was treated at room temperature for 30 minutes with 250 mM sodium acetate-acetate buffer ([…]), MES-sodium hydroxide buffer (pH 5.4-6.4), MOPS-sodium hydroxide buffer (pH 6.3-7.3), Tris-hydrochloride buffer (pH 7.2-8.8), CAPS-sodium hydroxide buffer (pH 8.9-10.4) or glycine-sodium hydroxide buffer (pH 10.5-13.3), each containing 2.5 mg/ml of bovine- serum albumin, 25 mM potassium chloride, 0.25 mM dithiothreitol and 5% glycerol. Then, the activity of the enzyme was measured. As a result, the activity of the enzyme was stable within the pH range between 6.7 and 12.1
The reaction was performed within the temperature range between 16° C. and 60° C. […]

Substrate in data set [6]: OC[C@H]1O[C@@H](n2cnc3c(O)ncnc32)[C@H](O)[C@@H]1O
Nature of the data set: Km values of the purified kinase. The note with it: other: substrate concentration varied; pH 7.5; 30.0 °C. It counts as biochemical, Exiguobacterium acetylicum. The protocol: as §1

Substrate in data set [7]: Nc1ncnc2c1ncn2[C@@H]1O[C@H](COP(=O)(O)OP(=O)(O)OP(=O)(O)O)[C@@H](O)[C@H]1O
Nature of the data set: Km values of the purified kinase. The note with it: other: for ATP when guanosine was used as a substrate; pH 7.5; 30.0 °C. It counts as biochemical, Exiguobacterium acetylicum. As to the method:
as §1

Substrate in data set [8]: Nc1nc2c(ncn2[C@@H]2O[C@H](CO)[C@@H](O)[C@H]2O)c(=O)[nH]1
Nature of the data set: Km values of the purified kinase. The data set is classed as biochemical, Exiguobacterium acetylicum. The note with it: other: substrate concentration varied; pH 7.5; 30.0 °C. As to the method:
as §1

On to `Nc1ncnc2c1ncn2[C@H]1C[C@H](O)[C@@H](COP(=O)(O)OP(=O)(O)OP(=O)(O)O)O1` [2′-deoxyadenosine triphosphate], for which, in data set [1], the “use as phosphate donor (in words)” value was “used as the phosphate donor” and the Relative activity is given as 71%.

`Nc1ncnc2c1ncn2[C@H]1C[C@H](O)[C@@H](CO)O1` [2′-deoxyadenosine]: the Relative activity in data set [2] is listed as 0%.

As for `Nc1nc2c(ncn2[C@H]2C[C@H](O)[C@@H](COP(=O)(O)OP(=O)(O)OP(=O)(O)O)O2)c(=O)[nH]1` [2′-deoxyguanosine triphosphate], in data set [1], the “use as phosphate donor (in words)” value was “used as the phosphate donor” and the Relative activity amounted to 61%.

Turning to `Nc1nc2c(ncn2[C@H]2C[C@H](O)[C@@H](CO)O2)c(=O)[nH]1` [2′-deoxyguanosine], in data set [2], the “use as phosphate receptor (in words)” value is “used as a phosphate receptor” and the Relative activity is reported as 4%.

With `[Ba+2].[Cl-].[Cl-]` [BaCl2], the Relative activity in data set [3] is 106%.

In the case of `O.O.[Ca+2].[Cl-].[Cl-]` [CaCl2.2H2O], the Relative activity in data set [4] is recorded as 1%; in data set [3] it was 71%.

Take `[Cl][Cd][Cl]` [CdCl2]: in data set [3], the “inhibition of the enzyme by metal ions (in words)” value (“inhibition of the enzyme” for short) is reported as “also inhibited” and the Relative activity is reported as 43%.

Turning to `O.O.O.O.O.O.[Cl-].[Cl-].[Co+2]` [CoCl2.6H2O], in data set [4], the Relative activity turned out to be 36% and the “metal requirement (in words)” value is reported as “the reaction proceeded”. Further, the Relative activity in data set [3] worked out at 103%.

As to `O.O.[Cl][Cu][Cl]` [CuCl2.2H2O], in data set [3], the “inhibition of the enzyme” value is “strongly inhibited” and the Relative activity was determined as 25%.

Consider `O.O.O.O.O.O.O.O=S(=O)([O-])[O-].[Fe+2]` [FeSO4.7H2O], for which the Relative activity in data set [4] worked out at 24%; in data set [3], 95%. In data set [4], the “metal requirement (in words)” value is “the reaction proceeded”.

`[Cl][Hg][Cl]` [HgCl2]: in data set [3], the “inhibition of the enzyme” value is “strongly inhibited” and the Relative activity is given as 22%.

Consider `O.O.O.O.O.O.[Cl-].[Cl-].[Mg+2]` [MgCl2.6H2O], for which, in data set [4], the Relative activity is given as 100% and the “metal requirement (in words)” value is on record as “the reaction proceeded”.

For the molecule `O.O.O.O.O.O.O.O=S(=O)([O-])[O-].[Mg+2]` [MgSO4.7H2O], the Relative activity in data set [4] was 107%; in data set [3] it was 110%.

Regarding `O.O.O.O.[Cl][Mn][Cl]` [MnCl2.4H2O], in data set [4], the Relative activity was 55% and the “metal requirement (in words)” value was “the reaction proceeded”. The Relative activity in data set [3] worked out at 81%.

`O.O.O.O.O.O.[Cl][Ni][Cl]` [NiCl2.6H2O]: the Relative activity in data set [4] came to 1%; in data set [3] it was 113%.

`[Cl-].[Cl-].[Zn+2]` [ZnCl2]: the Relative activity in data set [4] was determined as 1%; in data set [3], 58%. Further, the “inhibition of the enzyme” value in data set [3] is recorded as “also inhibited”.

On to `Nc1ncnc2c1ncn2[C@@H]1O[C@H](COP(=O)(O)OP(=O)(O)OP(=O)(O)O)[C@@H](O)[C@H]1O` [adenosine triphosphate], for which, in data set [1], the “use as phosphate donor (in words)” value is “used as the phosphate donor” and the Relative activity is 100%.

With `Nc1ncnc2c1ncn2[C@@H]1O[C@H](CO)[C@@H](O)[C@H]1O` [adenosine], in data set [2], the Relative activity is listed as 0%.

Turning to `Nc1ccn([C@@H]2O[C@H](COP(=O)(O)OP(=O)(O)OP(=O)(O)O)[C@@H](O)[C@H]2O)c(=O)n1` [cytidine triphosphate], the Relative activity in data set [1] is recorded as 6%.

Take `Nc1nc2c(ncn2[C@@H]2O[C@H](COP(=O)(O)OP(=O)(O)OP(=O)(O)O)[C@@H](O)[C@H]2O)c(=O)[nH]1` [guanosine triphosphate]: in data set [1], the “use as phosphate donor (in words)” value was “used as the phosphate donor” and the Relative activity stood at 59%.

For `Nc1nc2c(ncn2[C@@H]2O[C@H](CO)[C@@H](O)[C@H]2O)c(=O)[nH]1` [guanosine], in data set [2], the “use as phosphate receptor (in words)” value is “used as a phosphate receptor” and the Relative activity is 100%.

In the case of `OC[C@H]1O[C@@H](n2cnc3c(O)ncnc32)[C@H](O)[C@@H]1O` [inosine], in data set [2], the “use as phosphate receptor (in words)” value is on record as “used as a phosphate receptor” and the Relative activity came to 5%.

Consider `O=c1ccn([C@@H]2O[C@H](COP(=O)(O)OP(=O)(O)OP(=O)(O)O)[C@@H](O)[C@H]2O)c(=O)[nH]1` [uridine triphosphate], for which the Relative activity in data set [1] is given as 4%.

As to `O=c1[nH]c(=O)c2ncn([C@@H]3O[C@H](CO)[C@@H](O)[C@H]3O)c2[nH]1` [xanthosine], in data set [2], the Relative activity is 0%.

B1: inosine-guanosine kinase derived from Exiguobacterium acetylicum (Exiguobacterium acetylicum) (protein)
chain: MNKIAVIGKVFVDIKGTSFAPLHKDAKNVGDITFSNGGTGRNVAQNLAVLGNEVRFISTVTNDQIGVGVLDELKSYGANVDHVEMLEDHGMGMWLAVMDNEGDLQTSISKQPDAKLLEEAILRQSIYALDGVDAVAIDLDLSVTVLERLIHLCRKMELPLFGVCGHLSVIERNRHLLQGFTGFICSREEAEILSDLSIVTVEDAIHVANELAKKGAPFTVVTMSELGAVYVDRRTATSGHVGTKKVKVVDSTGAGDSFFSAVLSELTQEKSAEEALKLGMKVAAEVIASTENGLVPEMLDALQ
As for B1, the residual activity maintained in data set [5] (treatment at 25° C. or lower for 30 minutes) is at least 50%. Further, the “temperature at which the enzyme was inactivated” value in data set [5] (treatment for 30 minutes at 4 to 60° C.) was at least 40 °C. Also, the Km stood at 1000 µM in data set [6], 1600 µM in data set [7] and 30 µM in data set [8].
